# Results taken from paper PMC7902330, “Pharmacokinetic study of traditional Japanese Kampo medicine shimotsuto used to treat gynecological diseases in rats” (Journal of Natural Medicines, 2021).
# Read-outs that look alike come from different tables or passages of the source.
# Experiments:
# [1] = Nontargeted LC–HRMS detection of ingredients in rat plasma after oral administration of each constituent crude drug; conditions: n = 2
# Protocol: The rats were fasted for 16 h and then orally administered Angelicae Acutilobae Radix, Paeoniae Radix, Rehmanniae Radix, or Cnidii Rhizoma extract powder suspended in distilled water at a dosage of 1 g/10 mL/kg. […] The two sampling points (1 and 10 h) were set to extensively explore both fast- and slow-absorbing ingredients. The blood samples were centrifuged at 1700×g for 15 min at 4 °C to obtain plasma, and the plasma samples were stored at less than − 75 °C until LC–HRMS analysis.
# Before LC–HRMS analysis, the plasma samples were deproteinized using methanol as follows: 100 µL of plasma sample was mixed with 700 µL of methanol and then vortexed for 2 min. After centrifugation at 7000×g for 5 min at 4 °C, the supernatant was collected and then dried using a centrifugal evaporator, dissolved the dried residue in 80 μL of the initial mobile phase of LC, and recentrifuged at 7000×g for 5 min at 4 °C. Finally, a 5 μL aliquot of the supernatant was injected into the LC–HRMS system and analyzed in both positive and negative ion modes.
# We interfaced the Acquity Ultra-Performance Liquid Chromatography System (Waters) to a Xevo G2-XS quadrupole time-of-flight MS system (Waters) equipped with an electrospray ionization probe in sensitivity mode. All ions within m/z = 50–1000 were acquired by the MS^E method (data-independent acquisition). […] We created two acquisition functions with different collision energies: a low-energy function with 6 eV collision energy and a high-energy function with 15–40 eV collision energy. The mass spectrometer resolution was set at more than 20,000.
# [2] = Pharmacokinetics of ingredients in rat plasma after oral administration of shimotsuto (targeted LC–MS/MS); type: in vivo; conditions: in vivo
# Text: The plasma levels of nine ingredients were quantified using quantitative (targeted) analysis. Among them, seven ingredients (catalpol, paeoniflorin, albiflorin, senkyunolide A, butylphthalide, ferulic acid, and ligustilide) are candidate active ingredients in shimotsuto (Table 1). Two ingredients (bergapten and 8-debenzoylpaeoniflorin) are shimotsuto ingredients which were detected and identified in shimotsuto-treated rat plasma using nontargeted LC–HRMS analysis. The nine ingredients were quantified by collecting plasma samples at 0–24 h after shimotsuto administration, pretreating with the following procedures, and then analyzing by targeted LC–MS/MS using selected reaction-monitoring mode. The LC–MS/MS system was composed of a triple quadruple MS (TripleQuad6500; SCIEX, Framingham, MA, USA) and an Agilent 1290 Infinity LC system (Agilent Technologies, Santa Clara, CA, USA). For highly sensitive and selective quantitative (targeted) analysis of each compound, we preliminarily examined optimal pretreatment and analytical LC–MS/MS methods (e.g., MS parameters and LC conditions).
# For quantification of catalpol, paeoniflorin, albiflorin, ferulic acid, and senkyunolide A in plasma, 100 µL of plasma sample was mixed with 20 µL of methanol (or working solution) and 20 µL of internal standard (niflumic acid or swertiamarin) and pretreated by deproteinization using 500 µL of acetonitrile. […] Finally, the dried residue was dissolved in 60 µL of the specific HPLC mobile phase used for analysis and then a 10 μL aliquot was injected into the LC–MS/MS system.
# For quantification of ligustilide and butylphthalide in plasma, 200 µL of plasma sample was mixed with 40 µL of methanol (or working solution) and 40 µL of internal standard (imperatorin) and centrifuged at 15000×g for 10 min at 4 °C, the whole volume of supernatant was collected and subsequently pretreated by solid-phase extraction using Oasis HLB Extraction Cartridge (Waters, Milford, MA, USA). The acetonitrile elutes were collected and then dried under a steam of nitrogen gas. Finally, the dried residue was dissolved in 70 µL of the specific HPLC mobile phase and injected 20 µL into the LC–MS/MS system.
# For quantification of bergapten in plasma, 100 µL of plasma sample was mixed with 20 µL of methanol (or working solution) and 20 µL of internal standard (niflumic acid) and pretreated by solid-phase extraction using an Oasis HLB 96-well µElution plate. Next, the mixied elutes of acetonitrile and isopropyl alcohol (1:1, v/v) were collected and then dried under a steam of nitrogen gas. Finally, the dried residue was dissolved in 60 µL of the specific HPLC mobile phase and injected 10 µL into the LC–MS/MS system.
# For quantification of 8-debenzoylpaeoniflorin in plasma, 100 µL of plasma sample was mixed with 20 µL of methanol (or working solution) and 20 µL of internal standard (niflumic acid) and pretreated by liquid–liquid extraction using 500 µL of ethyl acetate. […] The dried residue was dissolved in 60 µL of the specific HPLC mobile phase and injected 10 µL into the LC–MS/MS system.
# In addition, pharmacokinetic parameters of the shimotsuto ingredients detected in the plasma, such as the maximum concentration (Cmax) and area under the plasma level–time curve (AUC0−last), were calculated by noncompartmental moment analysis using Phoenix WinNonlin software (Certara L.P., St. Louis, MO, USA).
# human TRPV1 = biological target: T1, human TRPV1 (Homo sapiens, UniProt Q8NER1); assay: Ca2+ influx assay for TRP channel agonistic activity in T-REx-293 cells; type: cell-based; conditions: 10 µmol/L test ingredient, positive control 2 µmol/L capsaicin, read-out: % Activation compared to positive control, TRPV1
# T1 construct: The full length of each of human transient receptor potential ankyrin 1 (TRPA1), transient receptor potential cation channel subfamily V member 1 (TRPV1); expressed in transfected cells
# T1 sequence (Q8NER1 whole entry): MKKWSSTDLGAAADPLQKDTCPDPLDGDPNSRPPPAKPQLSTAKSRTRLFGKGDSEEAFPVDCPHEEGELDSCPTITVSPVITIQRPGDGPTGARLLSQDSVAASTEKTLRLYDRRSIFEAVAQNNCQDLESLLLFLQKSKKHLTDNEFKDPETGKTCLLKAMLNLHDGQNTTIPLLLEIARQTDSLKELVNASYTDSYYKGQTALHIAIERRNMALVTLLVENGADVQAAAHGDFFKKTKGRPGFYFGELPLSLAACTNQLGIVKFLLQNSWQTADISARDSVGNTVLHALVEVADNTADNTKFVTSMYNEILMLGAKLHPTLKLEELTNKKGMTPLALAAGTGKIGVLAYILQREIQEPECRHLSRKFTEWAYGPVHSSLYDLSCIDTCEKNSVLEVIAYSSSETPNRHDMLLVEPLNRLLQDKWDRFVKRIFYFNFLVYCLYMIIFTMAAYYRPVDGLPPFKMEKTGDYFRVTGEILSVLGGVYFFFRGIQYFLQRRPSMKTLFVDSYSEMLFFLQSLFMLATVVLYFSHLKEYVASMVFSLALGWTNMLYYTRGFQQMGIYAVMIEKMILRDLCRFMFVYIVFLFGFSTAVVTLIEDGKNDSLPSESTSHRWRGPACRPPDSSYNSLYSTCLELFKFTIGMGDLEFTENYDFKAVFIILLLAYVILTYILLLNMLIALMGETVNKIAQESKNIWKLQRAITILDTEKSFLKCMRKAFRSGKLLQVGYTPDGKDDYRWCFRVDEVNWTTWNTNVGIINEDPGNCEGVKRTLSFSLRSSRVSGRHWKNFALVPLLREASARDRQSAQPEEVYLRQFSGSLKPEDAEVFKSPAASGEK
# Text: (§1) The full length of each of human transient receptor potential ankyrin 1 (TRPA1), transient receptor potential cation channel subfamily V member 1 (TRPV1), transient receptor potential cation channel subfamily V member 4 (TRPV4), and transient receptor potential cation channel subfamily M member 8 (TRPM8) coding region was introduced into a pcDNA4/TO vector (Thermo Fisher Scientific, Waltham, MA, USA) and transfected into T-REx-293 cells (Thermo Fisher Scientific) to obtain stable cell lines expressing human TRPA1, TRPV1, TRPV4, and TRPM8. Next, the cells were cultured in Dulbecco’s Modified Eagle Medium containing 10% fetal bovine serum (FBS), 4 mM L-glutamine, and penicillin/streptomycin.
# (§2) First, cells were suspended in culture medium with 1 µg/mL of tetracycline and seeded on a poly-D-lysine-coated 96-well plate at a density of 2.5 × 10^4 cells/well overnight. Next, the cells were used for Ca^2+ influx assay, as described previously with minor modifications, using a FLIPR Calcium 5 Assay Kit (Molecular Devices, San Jose, CA, USA). Briefly, cells were incubated in 80 µL of a Ca^2+-chelating dye dissolved in assay buffer at pH 7.4 (Hanks’ Balanced Salt Solution containing 20 mmol/L of 4-(2-hydroxyethyl)-1-piperazineethanesulfonic acid [HEPES]) for 30 min at room temperature. Next, the plates were assayed in a FlexStation 3 microplate reader (Molecular Devices). The fluorescence intensity was traced entirely for 80 s, and the fluorescence baseline was measured 20 s before application of 20 µL of the test compound (final concentration = 10 µmol/L). The response was expressed as percentage activation as follows:
# (§3) Relative fluorescence units (RFU) (% activation) = ([RFUmax − RFUbaseline]/RFUbaseline) × 100
# (§4) The activity of each test compound against TRPA1, TRPV1, TRPV4, and TRPM8 was represented as the relative enhancement of the Ca^2+ influx of each positive control as follows: 20 µmol/L of allyl isothiocyanate (TRPA1 agonist), 2 µmol/L of capsaicin (TRPV1 agonist), 4 µmol/L of GSK1016790A (TRPV4 agonist), and 20 µmol/L of icilin (TRPM8 agonist). The dose–response curve was fitted to the sigmoidal dose–response equation (Top: maximum response of each compound), and EC50 was calculated using GraphPad prism 7 software (GraphPad, San Diego, CA, USA).
# (§5) Calcium ion influx into TRPA1-, TRPV1-, TRPV4-, or TRPM8-expressing T-REx-293 cells was measured to evaluate the agonistic effect of shimotsuto ingredients on TRP channels. The action of 10 µmol/L of each test ingredient was represented as the relative enhancement of the Ca^2+ influx of each positive control, indicated as follows: 20 µmol/L each of allyl isothiocyanate (TRPA1 agonist), 2 µmol/L capsaicin (TRPV1 agonist), 4 µmol/L GSK1016790A (TRPV4 agonist), and 20 µmol/L icilin (TRPM8 agonist). Dose–response tests of shimotsuto ingredients against TRPA1 were performed to calculate EC50.
# human TRPA1 = biological target: T2, human TRPA1 (Homo sapiens, UniProt O75762); assay: as above; type: cell-based; conditions: for activation at 10 µM: T-REx-293, 10 µmol/L test ingredient, positive control 20 µmol/L allyl isothiocyanate, read-out: % Activation compared to positive control, TRPA1; for Activation of TRPA1 (in words): TRP stable expression cell lines
# T2 construct: The full length of each of human transient receptor potential ankyrin 1 (TRPA1); expressed in transfected cells
# T2 sequence (O75762 whole entry): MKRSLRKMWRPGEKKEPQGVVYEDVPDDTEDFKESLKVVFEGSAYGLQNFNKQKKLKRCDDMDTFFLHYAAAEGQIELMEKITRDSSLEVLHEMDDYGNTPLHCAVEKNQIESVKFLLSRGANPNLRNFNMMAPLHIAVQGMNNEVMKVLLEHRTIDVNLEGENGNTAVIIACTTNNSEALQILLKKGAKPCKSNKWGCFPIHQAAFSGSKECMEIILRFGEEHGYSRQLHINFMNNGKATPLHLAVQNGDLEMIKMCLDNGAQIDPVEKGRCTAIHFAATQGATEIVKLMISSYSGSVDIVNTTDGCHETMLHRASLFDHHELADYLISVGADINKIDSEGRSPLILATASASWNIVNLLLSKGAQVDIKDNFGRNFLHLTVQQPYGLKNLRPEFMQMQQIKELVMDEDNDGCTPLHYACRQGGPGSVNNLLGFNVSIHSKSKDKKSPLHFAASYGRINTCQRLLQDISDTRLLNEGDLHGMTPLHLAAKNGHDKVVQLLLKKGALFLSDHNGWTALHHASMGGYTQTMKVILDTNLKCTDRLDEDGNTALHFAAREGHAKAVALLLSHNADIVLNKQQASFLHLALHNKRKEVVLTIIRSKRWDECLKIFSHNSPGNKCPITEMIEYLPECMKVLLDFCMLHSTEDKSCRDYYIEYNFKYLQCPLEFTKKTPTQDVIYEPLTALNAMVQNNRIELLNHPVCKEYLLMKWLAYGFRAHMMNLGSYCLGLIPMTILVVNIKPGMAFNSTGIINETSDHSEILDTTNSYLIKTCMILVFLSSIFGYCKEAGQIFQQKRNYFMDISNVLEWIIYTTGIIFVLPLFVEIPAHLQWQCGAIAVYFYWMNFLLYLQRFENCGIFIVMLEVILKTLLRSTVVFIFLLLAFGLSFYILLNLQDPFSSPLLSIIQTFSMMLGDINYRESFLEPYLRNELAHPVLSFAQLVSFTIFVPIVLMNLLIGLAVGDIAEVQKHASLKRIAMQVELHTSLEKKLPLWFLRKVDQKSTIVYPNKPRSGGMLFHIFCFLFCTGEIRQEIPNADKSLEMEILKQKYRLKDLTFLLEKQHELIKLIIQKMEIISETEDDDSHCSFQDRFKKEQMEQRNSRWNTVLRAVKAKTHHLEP
# Text: as §1, §2, §3, §4, §5
# human TRPM8 = biological target: T3, human TRPM8 (Homo sapiens, UniProt Q7Z2W7); assay: as above; type: cell-based; conditions: 10 µmol/L test ingredient, positive control 20 µmol/L icilin, read-out: % Activation compared to positive control, TRPM8
# T3 construct: The full length of each of human transient receptor potential ankyrin 1 (TRPA1); expressed in transfected cells
# T3 sequence (Q7Z2W7 whole entry): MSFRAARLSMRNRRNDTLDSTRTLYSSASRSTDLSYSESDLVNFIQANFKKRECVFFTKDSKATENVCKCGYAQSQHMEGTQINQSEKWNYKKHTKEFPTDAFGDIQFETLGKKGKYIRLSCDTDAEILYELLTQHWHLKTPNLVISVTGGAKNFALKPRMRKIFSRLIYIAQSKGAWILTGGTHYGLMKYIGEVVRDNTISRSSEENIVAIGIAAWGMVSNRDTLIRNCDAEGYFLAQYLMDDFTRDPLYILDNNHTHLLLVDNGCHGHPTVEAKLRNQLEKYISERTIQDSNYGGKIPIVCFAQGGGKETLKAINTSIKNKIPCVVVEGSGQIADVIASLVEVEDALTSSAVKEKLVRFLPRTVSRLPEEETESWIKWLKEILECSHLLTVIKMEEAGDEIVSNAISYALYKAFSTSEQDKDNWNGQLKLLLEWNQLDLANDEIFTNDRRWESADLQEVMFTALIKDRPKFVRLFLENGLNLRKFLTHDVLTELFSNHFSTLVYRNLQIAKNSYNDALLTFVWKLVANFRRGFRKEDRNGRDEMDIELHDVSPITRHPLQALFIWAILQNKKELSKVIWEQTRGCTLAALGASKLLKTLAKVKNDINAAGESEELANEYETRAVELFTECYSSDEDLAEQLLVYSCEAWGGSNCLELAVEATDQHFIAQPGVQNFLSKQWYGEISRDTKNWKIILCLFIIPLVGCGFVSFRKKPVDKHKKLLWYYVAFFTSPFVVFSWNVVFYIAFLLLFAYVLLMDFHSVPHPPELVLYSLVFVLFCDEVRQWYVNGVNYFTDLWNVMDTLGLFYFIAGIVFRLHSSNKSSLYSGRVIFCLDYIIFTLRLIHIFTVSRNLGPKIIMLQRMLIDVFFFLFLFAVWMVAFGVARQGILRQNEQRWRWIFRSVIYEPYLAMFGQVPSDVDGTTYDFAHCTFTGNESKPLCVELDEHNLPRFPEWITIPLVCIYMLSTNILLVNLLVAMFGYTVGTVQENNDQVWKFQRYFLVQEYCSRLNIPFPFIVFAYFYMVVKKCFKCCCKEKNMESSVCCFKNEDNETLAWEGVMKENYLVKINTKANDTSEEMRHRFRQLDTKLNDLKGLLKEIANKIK
# Text: as §1, §2, §3, §4, §5
# human TRPV4 = biological target: T4, human TRPV4 (Homo sapiens, UniProt Q9HBA0); assay: as above; type: cell-based; conditions: 10 µmol/L test ingredient, positive control 4 µmol/L GSK1016790A, read-out: % Activation compared to positive control, TRPV4
# T4 construct: The full length of each of human transient receptor potential ankyrin 1 (TRPA1); expressed in transfected cells
# T4 sequence (Q9HBA0 whole entry): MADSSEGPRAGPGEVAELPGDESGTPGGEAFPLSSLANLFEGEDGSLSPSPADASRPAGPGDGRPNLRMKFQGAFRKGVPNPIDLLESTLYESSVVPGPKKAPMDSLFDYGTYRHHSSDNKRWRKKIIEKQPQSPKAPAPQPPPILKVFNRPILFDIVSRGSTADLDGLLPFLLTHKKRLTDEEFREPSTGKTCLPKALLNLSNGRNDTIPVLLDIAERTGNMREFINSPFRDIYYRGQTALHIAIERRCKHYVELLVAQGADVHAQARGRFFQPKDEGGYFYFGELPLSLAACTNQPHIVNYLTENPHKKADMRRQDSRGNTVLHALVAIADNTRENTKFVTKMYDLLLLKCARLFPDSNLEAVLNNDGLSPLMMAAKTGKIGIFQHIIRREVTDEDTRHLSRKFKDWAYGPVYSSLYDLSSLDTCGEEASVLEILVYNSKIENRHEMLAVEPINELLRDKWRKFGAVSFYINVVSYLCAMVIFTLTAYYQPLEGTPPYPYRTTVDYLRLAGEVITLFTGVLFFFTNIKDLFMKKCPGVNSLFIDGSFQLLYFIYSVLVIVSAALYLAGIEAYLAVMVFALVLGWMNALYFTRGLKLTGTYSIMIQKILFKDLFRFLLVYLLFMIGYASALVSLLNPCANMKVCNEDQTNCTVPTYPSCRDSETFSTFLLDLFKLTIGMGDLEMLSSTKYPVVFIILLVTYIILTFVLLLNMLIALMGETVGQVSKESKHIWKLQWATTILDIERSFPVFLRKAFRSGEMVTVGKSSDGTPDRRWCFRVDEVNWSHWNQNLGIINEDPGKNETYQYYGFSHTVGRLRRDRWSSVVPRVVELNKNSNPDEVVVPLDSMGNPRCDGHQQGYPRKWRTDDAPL
# Text: as §1, §2, §3, §4, §5
# [3] = cited from earlier work
# [4] = oral Angelicae Acutilobae Radix 1 g/kg
"AUC(0-t) ([2]; rat, po, 1 g/kg) [ng·h/mL]","Cmax ([2]; rat, po, 1 g/kg) [ng/mL]","Tmax ([2]; rat, po, 1 g/kg) [min]",activation at 10 µM (human TRPV1) [%],activation at 10 µM (human TRPA1) [%],Activation of TRPA1 (in words) (human TRPA1),activation at 10 µM (human TRPM8) [%],activation at 10 µM (human TRPV4) [%],Compound,Plasma collected 1 h postadministration (detection) ([1]; oral Cnidii Rhizoma 1 g/kg),Plasma collected 10 h postadministration (detection) ([1]; oral Cnidii Rhizoma 1 g/kg),also measured
,,,,,,,,CCCC=C1OC(=O)c2ccccc21 [3-Butylidenephthalide],++ (The number of + signs represent the sample number in which the ingredient was detected in the plasma after administration of each constituent crude drug of shimotsuto (n = 2 per sampling time per crude drug)),Not detected,
811,466,60,1,30,slightly activated,2,1,CC12CC3(O)OC(O1)C1(CO)C3CC21OC1OC(CO)C(O)C(O)C1O (stereo not shown) [8-Debenzoylpaeoniflorin],,,Cmax compared to paeoniflorin ([2]; rat): approximately tenfold; Plasma collected 1 h postadministration (detection) ([1]; oral Paeoniae Radix 1 g/kg): ++ (The number of + signs represent the sample number in which the ingredient was detected in the plasma after administration of each constituent crude drug of shimotsuto (n = 2 per sampling time per crude drug)); Plasma collected 10 h postadministration (detection) ([1]; oral Paeoniae Radix 1 g/kg): + (The number of + signs represent the sample number in which the ingredient was detected in the plasma after administration of each constituent crude drug of shimotsuto (n = 2 per sampling time per crude drug))
4.12,13.7,30,-1,73,potently activated,-1,0,CCCCC1OC(=O)c2ccccc21 (stereo not shown) [Butylphthalide],,,"Pharmacological action related to improvement of blood and the circulatory system ([3]; ref 9): Vasodilation; Pharmacological action related to improvement of blood and the circulatory system ([3]; ref 13): vasorelaxation and increased blood flow effects; EC50 (human TRPA1; dose–response test, Ca2+ influx, read-out: EC50 against TRPA1): 3200 nM"
,,,,,,,,O.Oc1cc(O)c2c(c1)O[C@H](c1ccc(O)c(O)c1)[C@@H](O)C2 [Catechin],,,Plasma collected 1 h postadministration (detection) ([1]; oral Paeoniae Radix 1 g/kg): ++ (The number of + signs represent the sample number in which the ingredient was detected in the plasma after administration of each constituent crude drug of shimotsuto (n = 2 per sampling time per crude drug)); Plasma collected 10 h postadministration (detection) ([1]; oral Paeoniae Radix 1 g/kg): Not detected
,,,,,,,,COc1cc(/C=C/COC(=O)/C=C/c2ccc(O)c(OC)c2)ccc1O [Coniferyl ferulate],++ (The number of + signs represent the sample number in which the ingredient was detected in the plasma after administration of each constituent crude drug of shimotsuto (n = 2 per sampling time per crude drug)),+ (The number of + signs represent the sample number in which the ingredient was detected in the plasma after administration of each constituent crude drug of shimotsuto (n = 2 per sampling time per crude drug)),
,,,,,,,,COc1cc(O)c2c(=O)cc(C)oc2c1 [Eugenin],++ (The number of + signs represent the sample number in which the ingredient was detected in the plasma after administration of each constituent crude drug of shimotsuto (n = 2 per sampling time per crude drug)),Not detected,
75,12.4,15,0,3,,5,0,COc1cc(/C=C/C(=O)O)ccc1O [Ferulic acid],,,Pharmacological action related to improvement of blood and the circulatory system ([3]; ref 14): Vasodilation effect [14]

Compound,"AUC(0-t) ([2]; rat, po, 1 g/kg) [ng·h/mL]","Cmax ([2]; rat, po, 1 g/kg) [ng/mL]","Tmax ([2]; rat, po, 1 g/kg) [min]",activation at 10 µM (human TRPV1) [%],activation at 10 µM (human TRPA1) [%],Activation of TRPA1 (in words) (human TRPA1),activation at 10 µM (human TRPM8) [%],activation at 10 µM (human TRPV4) [%],Plasma collected 1 h postadministration (detection) ([1]; oral Cnidii Rhizoma 1 g/kg),Plasma collected 10 h postadministration (detection) ([1]; oral Cnidii Rhizoma 1 g/kg),also measured
COc1c2ccoc2cc2oc(=O)ccc12 [Bergapten],,,,0,3,,0,0,,,"AUC(0-t) ([2]; rat plasma, oral shimotsuto 1 g/kg, from mean concentration (n = 3) per time point, read-out: AUC0−last): 0.0105 ng·h/mL; Cmax ([2]; rat plasma, oral shimotsuto 1 g/kg, from mean concentration (n = 3) per time point, read-out: Cmax): 0.0837 ng/mL; Tmax ([2]; rat plasma, oral shimotsuto 1 g/kg, from mean concentration (n = 3) per time point, read-out: tmax): 15 min; Plasma collected 1 h postadministration (detection) [1, 4]: + (The number of + signs represent the sample number in which the ingredient was detected in the plasma after administration of each constituent crude drug of shimotsuto (n = 2 per sampling time per crude drug)); Plasma collected 10 h postadministration (detection) [1, 4]: Not detected"
CCCC[C@@H]1OC(=O)C2=C1CCC=C2 [Senkyunolide A],8.04,28.9,15,1,86,potently activated,-1,0,,,Pharmacological action related to improvement of blood and the circulatory system ([3]; ref 8): Vasorelaxation; Pharmacological action related to improvement of blood and the circulatory system ([3]; ref 13): vasorelaxation and increased blood flow effects; EC50 (human TRPA1): 1000 nM
